Tests used:
[1] = biological target: T1, MtSerB2 (phosphoserine phosphatase SerB2) (Mycobacterium tuberculosis, UniProt O53289); assay: steady-state kinetics, malachite green phosphatase assay; SEC-UV/SAXS dimer-to-trimer shift; assay type: biochemical
T1 construct: full-length dimer fraction, His-tag cleaved

[2] = test system: N[C@@H](COP(=O)(O)O)C(=O)O; assay: purified protein; conditions: Mg2+ ([…] MgCl2 in assay) active site; uncompetitive substrate inhibition

T1 sequence (O53289 whole entry): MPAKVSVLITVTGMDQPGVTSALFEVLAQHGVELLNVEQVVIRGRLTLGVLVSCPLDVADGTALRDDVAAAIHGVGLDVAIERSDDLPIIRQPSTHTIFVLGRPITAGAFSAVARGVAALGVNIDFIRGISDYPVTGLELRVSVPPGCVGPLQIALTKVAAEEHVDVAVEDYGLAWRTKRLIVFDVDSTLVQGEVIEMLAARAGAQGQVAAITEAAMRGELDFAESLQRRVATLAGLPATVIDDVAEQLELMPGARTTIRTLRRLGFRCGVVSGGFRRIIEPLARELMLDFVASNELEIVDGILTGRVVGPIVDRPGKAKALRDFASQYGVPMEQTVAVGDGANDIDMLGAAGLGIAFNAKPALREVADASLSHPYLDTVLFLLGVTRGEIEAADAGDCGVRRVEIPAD

| Compound | Ki [1] | Km [2] |
| --- | --- | --- |
| N[C@@H](CO)C(=O)O [L-Ser] | 22 ± 5.3 µM |  |
| MtSerB2 (phosphoserine phosphatase SerB2) (Mycobacterium tuberculosis H37Rv) |  | 480 ± 170 µM |
